Article PMC7397466, “Expression, purification and crystal structure determination of a ferredoxin reductase from the actinobacterium Thermobifida fusca” (Acta Crystallographica. Section F, Structural Biology …, 2020)

Molecular target: T1, FdR9 (Thermobifida fusca, UniProt Q47QF8)
T1 construct: gene Tfu_1273
Test: X-ray crystal structure, […] Å
Format: binding
Details: copurified cofactor; crystals at pH 6.5, 298 K

T1 sequence (Q47QF8 entry or part of it): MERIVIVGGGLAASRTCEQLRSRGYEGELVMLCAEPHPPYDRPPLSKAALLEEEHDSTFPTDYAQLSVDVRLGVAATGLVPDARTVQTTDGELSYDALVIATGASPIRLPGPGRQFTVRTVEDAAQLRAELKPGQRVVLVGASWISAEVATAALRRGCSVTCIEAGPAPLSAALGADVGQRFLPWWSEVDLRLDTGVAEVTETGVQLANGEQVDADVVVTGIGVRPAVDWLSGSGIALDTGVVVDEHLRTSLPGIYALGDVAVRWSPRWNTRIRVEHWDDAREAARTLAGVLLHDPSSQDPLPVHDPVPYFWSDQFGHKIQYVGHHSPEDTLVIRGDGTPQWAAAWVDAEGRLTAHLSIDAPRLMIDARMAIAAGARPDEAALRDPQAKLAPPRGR

`Cc1cc2nc3c(=O)[nH]c(=O)nc-3n(C[C@H](O)[C@H](O)[C@H](O)COP(=O)(O)OP(=O)(O)OC[C@H]3O[C@@H](n4cnc5c(N)ncnc54)[C@H](O)[C@@H]3O)c2cc1C` [FAD] was tested. Which “X-ray crystal structure, 1.9 Å” value did it give?
The value was “The resulting electron-density map allowed the identification of the FAD molecule bound to the reductase”.
